Patent US11180461B2, “Triazoles as Kv3 inhibitors” (AUTIFONY THERAPEUTICS LIMITED, priority 2012, dated 2021)

Columns and labels:
Kv3 channels = settings: cited from earlier work
[1] = tested on: chinchilla model of acute noise-induced hearing loss; experiment: Chinchilla model of acute noise-induced hearing loss (auditory brainstem response thresholds); format: in vivo; settings: 60 mg/kg i.p., doses 12 hours apart, 5 pre- and 5 post-noise; 21 days after noise exposure; p<0.01
Experimental: The otoprotective efficacy of COMPOUND X (i.e. the ability to prevent or reduce the development of permanent acute noise-induced hearing loss) was investigated using a chinchilla model of acute noise-induced hearing loss, as follows:
Subjects comprised male, 3 year old chinchillas (Laniger), 10 animals per group.
Vehicle (20% Captisol®, 0.5% w/v HPMC K15M and 0.5% w/v Tween-80™) was prepared using autoclaved deionized water not more than one week prior to use. A suspension of COMPOUND X in the vehicle at 10 mg/ml was prepared less than 24 hours prior to administration. COMPOUND X was administered at 60 mg/kg via the intraperitoneal route, with doses 12 hours apart. Five injections were given pre-noise exposure and five post-noise exposure. […]
Auditory brainstem responses (ABRs) were collected prior to noise exposure and 21 days after noise exposure. […] Thresholds were measured in response to tone-bursts with 1 ms rise/fall and a 0 ms plateau gated by a Blackman envelope and centred at the frequencies of 2, 4, 6 and 8 kHz, presented at 30/s. […]
The thresholds for ABRs at the four different sound frequencies at day 21 post-noise exposure were compared to the thresholds at baseline, prior to noise exposure in order to determine a threshold shift for each animal. The data were then analysed using a 2-way ANOVA, with treatment and frequency as main factors.

[2] = tested on: Long Evans adult rats with noise-induced tinnitus; experiment: Model of tinnitus: gap pre-pulse inhibition of acoustic startle in noise-exposed Long Evans rats; format: in vivo, rat
Experimental: Twenty Long Evans adult rats were exposed to a unilateral 116 dB, 16 kHz octave-band noise for one hour in order to induce hearing loss and chronic tinnitus. Ten control rats received a sham noise exposure. Approximately thirty days after the noise exposure hearing thresholds were determined for each animal. Animals were then assessed for the presence of tinnitus using a gap pre-pulse inhibition of acoustic startle paradigm similar to that described by Turner J G, Brozoski T J, Bauer C A, Parrish J L, Myers K, Hughes L F, Caspary D M. Behav Neurosci. 2006 February; 120(1):188-95. In this test, rats were placed on a motion sensor that measured the startle amplitude of the animals in response to a sudden loud sound (115-dB SPL, 20-ms duration) emitted by a loudspeaker located in the ceiling of the cage. It is known that a brief, non-startling sound or “pre-pulse”, prior to the startle sound can reduce the startle amplitude, a phenomenon known as pre-pulse inhibition. In the present study, the pre-pulse is substituted by a 50 ms silence gap in a constant sound 100 ms prior to the startle sound. If the gap is perceived by the animal, then then startle response will be inhibited. However, if the animal has tinnitus, then the tinnitus sound may fill the gap and will startle as if there were no gap (reduced or absent gap pre-pulse inhibition). A drug that reduces the tinnitus will therefore restore gap pre-pulse inhibition.
The pitch of tinnitus is typically in the same range as the hearing loss, which in turn is most marked at the frequencies of the noise trauma. Thus each animal was tested for gap pre-pulse inhibition using gaps in tones of 10, 12.5, 16, 20, and 25 kHz at 60-65 dB SPL. As a control, the animals were also tested with gaps in a broadband sound of the same amplitude. Irrespective of whether the animals have tinnitus, it is unlikely that the tinnitus would fill the gap in the broadband sound, and thus this provides a control for whether the noise-trauma might have affected the gap detection ability of the rats. […]

[3] = tested on: aged and young Fischer 344 (F344) rats; experiment: Model of central auditory processing deficit: auditory gap detection (gap-induced PPI of startle) in F344 rats; format: in vivo, rat
Experimental: The ability of COMPOUND X to improve auditory temporal processing in the rat, was examined using an auditory gap detection procedure in aged female Fischer 344 (F344) rats with an average age of 19.5±1.9 months, and in young F344 rats with an average age of 3 months. COMPOUND X, at doses of 30 or 60 mg/kg, or vehicle were administered via the intraperitoneal route on three test occasions using a crossover design, with an interval of at least 7 days between occasions.
Hearing thresholds in each rat were determined under anaesthesia using the auditory brainstem response (ABR) prior to the first drug administration. ABRs were recorded using subcutaneous needle electrodes in a sound attenuated chamber using pure tone bursts as stimuli (5 ms duration, frequency range 2-40 kHz).
The gap detection procedure evaluated the ability of the rats to detect short gaps in background noise by measuring the degree of inhibition that the gap afforded in the animal's startle response to a subsequent loud sound, a phenomenon known as pre-pulse inhibition (PPI). Testing was performed in a sound attenuated chamber. During the testing procedure, the rat was confined to a small wire mesh cage on a motion-sensitive platform. The animal's reflex movements were detected and transduced by a piezoelectric accelerometer. The startle response was evaluated in a 100 ms window beginning at the onset of the startle stimulus (a 110 dB SPL broad-band noise burst of 50 ms duration embedded in a background continuous broad-band noise of 65 dB SPL). Acoustic stimulation was presented via a loudspeaker placed 12 cm above the platform inside the chamber.
PPI of the startle response was induced by gaps of different durations (5-50 ms) preceding the startle stimulus by 70 ms. The degree of PPI was calculated from the startle response amplitude in the presence of the gap relative to the startle response amplitude in the absence of the gap. A two-way ANOVA with the Bonferroni post-hoc test was used to compare the degree of PPI before and after the drug applications.

SMILES | inhibition of Kv3 channels (Kv3 channels) | permanent threshold shift in ABR [1] | gap pre-pulse inhibition ([2]; animals with evidence of tinnitus, 30 mg/kg i.p. 1-2 hours prior to testing, p<0.05) | gap pre-pulse inhibition ([2]; animals with evidence of tinnitus, 60 mg/kg i.p. 1-2 hours prior to testing, p=0.01) | gap pre-pulse inhibition ([2]; control animals or noise-exposed animals without tinnitus) | degree of PPI (gap detection) ([3]; aged F344 rats, 30 mg/kg i.p., 30 ms gap duration, p<0.001) | degree of PPI (gap detection) ([3]; aged F344 rats, 30 mg/kg i.p., gap durations of 5, 10, and 15 ms) | degree of PPI (gap detection) ([3]; aged F344 rats, 60 mg/kg i.p., 30 ms gap duration, p<0.001) | degree of PPI (gap detection) ([3]; young F344 rats, 30 mg/kg i.p.) | degree of PPI (gap detection) ([3]; young F344 rats, 60 mg/kg i.p.)
CC[N+](CC)(CC)CC [Tetraethylammonium (TEA), Tetraethylammonium] | inhibit the channels at low millimolar concentrations |  |  |  |  |  |  |  |  | 
CC[C@@]1(C)NC(=O)N(c2cnc(Oc3ccc(C)c(OC(F)(F)F)c3)nc2)C1=O [COMPOUND X, (5R)-5-ethyl-5-methyl-3-[2-({4-methyl-3-[(trifluoromethyl)oxy]phenyl}oxy)-5-pyrimidinyl]-2,4-imidazolidinedione] |  | significantly reduced | significantly restored | significantly restored | no effect | significantly increased | significant improvement | significantly increased | tended to increase the degree of PPI, but the increases were not significant | tended to increase the degree of PPI, but the increases were not significant
